Legend:
[1] = system: human eosinophils; experiment: Chemoattractant-induced migration of eosinophils; assay type: cell-based; conditions: for migration of human eosinophils induced by chemoattractant: C5a 10^−7 M positive control, eotaxin 50 nM on untreated eosinophils, FIG. 1, FIG. 3
Experimental: Eosinophil Isolation: Eosinophils were purified from the peripheral blood of allergic donors (Boehme, et al. J. Immunol. 163:1611 (1999)).
(§1) Culture medium alone or medium containing 5-HT (100 nM) or eotaxin (50 nM) was added to the lower chamber. In certain experiments 5-HT was added to only upper or both upper and lower chambers and incubated at 37° C. for 4 h after which the chambers were removed and the number of migrated cells was quantitated and expressed as a % of total cells added to the well.

[2] = system: neutrophils; experiment: Chemoattractant-induced chemotaxis of neutrophils; assay type: cell-based; conditions: C5a 10^−7 M positive control; FIG. 1
[3] = system: human eosinophils; experiment: Transwell chamber chemotaxis assay: eotaxin-induced eosinophil migration; assay type: cell-based; conditions: MDL-100,907 20 μM; eotaxin 50 nM; FIG. 3
Experimental: as §1, with “Eosinophil Isolation: Eosinophils were purified from the peripheral blood of allergic donors (Boehme, et al. J. Immunol. 163:1611 (1999)). […] Culture” for “Culture”, “well. […] Neuropsychopharmacology 15:116 (1996)), on 5-HT mediated eosinophil chemotaxis was investigated in vitro (FIG. 3).” for “well.”

[4] = target: dopamine D-2 receptors (Homo sapiens, UniProt P14416); conditions: cited from earlier work
[5] = system: OVA-challenged mice; experiment: AHR to methacholine in murine model of allergic airway inflammation; assay type: in vivo, BALB/c mice; conditions: 0.5 mg/kg body weight i.p., 15 min before OVA aerosol challenge; versus OVA-challenged mice without antagonist; FIG. 6
Experimental: Murine model of allergic airway inflammation: Pulmonary eosinophilia was induced in female BALB/c mice. In brief, mice were sensitized by two i.p. injections with 50 μg ovalbumin (OVA) in 200 μl alum (Pierce). Non-sensitized mice received 200 μl of alum alone. […] Fifteen minutes after injection of the inhibitor, mice were exposed to three inhalations (30 min each) of aerosolized OVA (10 mg/ml in 0.9% sterile saline) at 1 h intervals. Non-sensitized mice received an i.p. injection of vehicle and aerosol challenge of saline only. One hour after the last aero-allergen challenge, mice were assessed for airway hyperreactivity/responsiveness (AHR) as described below and subsequently sacrificed and processed for BAL fluid collection to determine eosinophil counts (Broide, et al. Am. J. Respir. Cell Mol. Biol. 18:218 (1998)). Determination of AHR to methacholine: AHR was assessed after completion of the final OVA inhalation challenges, immediately before the mice were sacrificed using a single chamber whole body plethysmograph obtained from Buxco (Troy, N.Y.), as previously described (Broide, et al. Am. J. Physiol. Lung Cell Mol Physiol. 282:[…] (2002)). In this system, an unrestrained, spontaneously breathing mouse is placed into the main chamber of the plethysmograph, and pressure differences between this chamber and a reference chamber are recorded. […]

[6] = system: human eosinophils; experiment: Transwell chamber chemotaxis assay: inhibition of 5-HT-induced eosinophil chemotaxis; assay type: cell-based; conditions: 5-HT 100 nM
Experimental: as §1, with “Eosinophil Isolation: Eosinophils were purified from the peripheral blood of allergic donors (Boehme, et al. J. Immunol. 163:1611 (1999)). […] Culture” for “Culture”, “well. […] Neuropsychopharmacology 15:116 (1996)), on 5-HT mediated eosinophil chemotaxis was investigated in vitro (FIG. 3).” for “well.”

[7] = system: adrenergic alpha-1 receptors; conditions: cited from earlier work
[8] = system: OVA-challenged mice; experiment: Eosinophil counts in BAL fluid in murine model of allergic airway inflammation; assay type: in vivo, BALB/c mice; conditions: 0.5 mg/kg body weight i.p.; versus OVA-challenged mice without compound; FIG. 7
Experimental: Murine model of allergic airway inflammation: Pulmonary eosinophilia was induced in female BALB/c mice. In brief, mice were sensitized by two i.p. injections with 50 μg ovalbumin (OVA) in 200 μl alum (Pierce). Non-sensitized mice received 200 μl of alum alone. […] Fifteen minutes after injection of the inhibitor, mice were exposed to three inhalations (30 min each) of aerosolized OVA (10 mg/ml in 0.9% sterile saline) at 1 h intervals. Non-sensitized mice received an i.p. injection of vehicle and aerosol challenge of saline only. One hour after the last aero-allergen challenge, mice were assessed for airway hyperreactivity/responsiveness (AHR) as described below and subsequently sacrificed and processed for BAL fluid collection to determine eosinophil counts (Broide, et al. Am. J. Respir. Cell Mol. Biol. 18:218 (1998)). […] BALB/c mice were immunized intraperitoneally (i.p.) with alum alone (control), 50 μg OVA in alum and boosted 12 days later with an additional dose of OVA (50 μg). […] Fifteen minutes later, mice were challenged with either nebulized OVA (10 mg/ml) or PBS (challenge control) for 30 min. […] Three hours after the last challenge, AHR was measured in unrestrained mice using BUXCO plethysmography. […] The percentage of the total cells that were eosinophils was quantitated. […] No eosinophils were detected (n.d.) in the BAL fluid of control mice.

[9] = system: muscarinic cholinergic receptors; conditions: cited from earlier work
[10] = system: 5HT1 receptors; conditions: cited from earlier work

dopamine D-2 receptors, sequence (P14416 whole entry): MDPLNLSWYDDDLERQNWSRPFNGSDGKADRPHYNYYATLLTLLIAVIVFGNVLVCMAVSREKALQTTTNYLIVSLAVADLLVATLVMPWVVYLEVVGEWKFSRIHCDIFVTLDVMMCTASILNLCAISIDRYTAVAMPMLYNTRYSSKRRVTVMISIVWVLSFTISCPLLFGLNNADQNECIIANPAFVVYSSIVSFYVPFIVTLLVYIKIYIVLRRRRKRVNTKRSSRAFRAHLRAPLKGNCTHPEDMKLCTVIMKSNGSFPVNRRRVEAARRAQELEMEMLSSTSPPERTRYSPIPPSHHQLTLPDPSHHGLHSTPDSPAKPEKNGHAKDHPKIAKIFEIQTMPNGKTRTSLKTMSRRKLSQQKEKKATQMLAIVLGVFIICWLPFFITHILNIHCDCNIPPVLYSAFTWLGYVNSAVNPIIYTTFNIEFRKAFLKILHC

Molecule: eotaxin: chemokine, eosinophil chemoattractant
- migration of human eosinophils induced by chemoattractant ([1]; 5-HT alone): robust migratory response

Molecule: NCCc1c[nH]c2ccc(O)cc12 [5-HT, Serotonin]
- concentration at which induced eosinophil migration was maximal ([1]; 5-HT alone, dose-dependent): 10^−6 molar (M)
- migration of human eosinophils induced by chemoattractant ([1]; 5-HT alone): induce migration of human eosinophils in a dose-dependent manner
- nature of induced migration (chemotactic or chemokinetic) ([1]; 5-HT in upper or both chambers, FIG. 2): directed chemotactic response and not chemokinetic
- chemotaxis of neutrophils induced by chemoattractant [2]: did not induce chemotaxis of neutrophils

Molecule: COc1cccc([C@H](O)C2CCN(CCc3ccc(F)cc3)CC2)c1OC [MDL-100,907, R-(+)-α-(2,3-dimethoxyphenyl)-1-[2-(4-fluorophenyl)ethyl]-4-piperidine methanol]
- migratory response to eotaxin of treated eosinophils [3]: robust migratory response
- activity at dopamine D-2 receptors [4]: little detectable activity
- AHR (airway hyperresponsiveness), BUXCO plethysmography [5]: markedly reduced AHR
- chemotactic response to 5-HT ([6]; MDL-100,907 20 μM, versus untreated eosinophils, FIG. 3): significantly reduced chemotactic response
- inhibition of eosinophil chemotaxis to 5-HT ([6]; all ranges from 0.1 μM to 100 μM, FIG. 5): Robust inhibition of eosinophil chemotaxis
- activity at adrenergic alpha-1 receptors [7]: little detectable activity
- number of eosinophils present in the BAL fluid [8]: inhibited the number of eosinophils
- activity at muscarinic cholinergic receptors [9]: little detectable activity
- activity at 5HT1 receptors [10]: little detectable activity

B1: C5a: positive control chemoattractant for eosinophils and neutrophils (protein, UniProt P01031 678-751, looked up)
C5a anaphylatoxin: TLQKKIEEIAAKYKHSVVKKCCYDGACVNNDETCEQRAARISLGPRCIKAFTECCVVASQLRANISHKDMQLGR
modifications: C5a anaphylatoxin
notes: positive control chemoattractant for eosinophils and neutrophils
- migration of human eosinophils induced by chemoattractant ([1]; 5-HT alone): induce migration of both eosinophils and neutrophils
- chemotaxis of neutrophils induced by chemoattractant [2]: induce migration of both eosinophils and neutrophils

Reference: US20060069124A1 (priority 2004, published 2006)
